From ChEMBL document CHEMBL3046356, “Synthesis and anticholinesterase activity of fumaramide derivatives” (Med Chem Res, 2013)
Calls of active or inactive are those of the source. No cut-off for these calls is given here.

Tests used:
Cholinesterase = Cholinesterase (Equus caballus, UniProt P81908); test: Inhibition of BCHE in Equus caballus (horse) serum using butyrylthiocholine iodide as substrate preincubated with enzyme for 15 min prior to substrate addition measured every 45 s by colorimetric Ellman's method
Acetylcholinesterase = Acetylcholinesterase (Electrophorus electricus, UniProt O42275); test: Inhibition of Electrophorus electricus (electric eel) AChE using acetylthiocholine iodide as substrate preincubated with enzyme for 15 min prior to substrate addition measured every 45 s by colorimetric Ellman's method
[1] = molecular target: Acetylcholinesterase (Electrophorus electricus) (UniProt O42275); test: Inhibition of Electrophorus electricus (electric eel) AChE using acetylthiocholine iodide as substrate at 10 mg/ml by TLC-B assay
[2] = molecular target: Cholinesterase (Equus caballus) (UniProt P81908); test: Non-competitive inhibition of BCHE in Equus caballus (horse) serum assessed as decrease in Vmax with unchanged Km using butyrylthiocholine iodide as substrate by Lineweaver-burk plot analysis
[3] = molecular target: Acetylcholinesterase (Electrophorus electricus) (UniProt O42275); test: Non-competitive inhibition of Electrophorus electricus (electric eel) AChE assessed as decrease in Vmax with unchanged Km using acetylthiocholine iodide as substrate by Lineweaver-burk plot analysis

Chain of Acetylcholinesterase (O42275 whole entry): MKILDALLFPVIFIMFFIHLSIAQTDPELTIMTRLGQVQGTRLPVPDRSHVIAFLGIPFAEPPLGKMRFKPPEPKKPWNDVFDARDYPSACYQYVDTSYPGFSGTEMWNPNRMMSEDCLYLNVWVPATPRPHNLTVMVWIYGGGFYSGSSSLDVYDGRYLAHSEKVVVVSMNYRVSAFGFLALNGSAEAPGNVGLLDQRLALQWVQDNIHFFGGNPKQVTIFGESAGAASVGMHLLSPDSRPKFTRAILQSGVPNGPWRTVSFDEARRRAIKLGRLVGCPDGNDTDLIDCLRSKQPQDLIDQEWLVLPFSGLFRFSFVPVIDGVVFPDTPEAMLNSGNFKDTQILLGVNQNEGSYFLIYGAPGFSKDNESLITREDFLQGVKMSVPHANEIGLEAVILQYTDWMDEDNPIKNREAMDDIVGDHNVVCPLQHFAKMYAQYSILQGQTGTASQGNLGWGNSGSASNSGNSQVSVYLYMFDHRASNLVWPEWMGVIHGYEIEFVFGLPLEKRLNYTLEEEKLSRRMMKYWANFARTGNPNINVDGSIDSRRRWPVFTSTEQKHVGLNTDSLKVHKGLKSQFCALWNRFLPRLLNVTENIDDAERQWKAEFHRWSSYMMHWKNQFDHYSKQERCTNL
Chain of Acetylcholinesterase (Electrophorus electricus) (O42275 24-633 limits assumed): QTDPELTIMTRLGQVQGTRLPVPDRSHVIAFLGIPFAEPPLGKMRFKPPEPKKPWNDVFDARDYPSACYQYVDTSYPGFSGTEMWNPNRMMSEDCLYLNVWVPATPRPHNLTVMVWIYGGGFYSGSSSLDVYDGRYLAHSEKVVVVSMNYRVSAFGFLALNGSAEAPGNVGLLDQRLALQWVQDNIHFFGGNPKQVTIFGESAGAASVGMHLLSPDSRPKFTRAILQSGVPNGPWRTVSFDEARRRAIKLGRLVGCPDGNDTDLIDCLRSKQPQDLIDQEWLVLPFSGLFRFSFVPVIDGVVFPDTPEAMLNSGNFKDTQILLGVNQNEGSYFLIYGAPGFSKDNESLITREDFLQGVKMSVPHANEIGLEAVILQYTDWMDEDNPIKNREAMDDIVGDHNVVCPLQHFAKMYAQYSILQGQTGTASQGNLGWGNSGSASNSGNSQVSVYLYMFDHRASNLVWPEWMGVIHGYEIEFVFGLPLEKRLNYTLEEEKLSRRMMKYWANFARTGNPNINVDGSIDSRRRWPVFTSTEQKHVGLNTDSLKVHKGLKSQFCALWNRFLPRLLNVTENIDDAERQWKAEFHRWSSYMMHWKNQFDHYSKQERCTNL
Chain of Cholinesterase (P81908 whole entry): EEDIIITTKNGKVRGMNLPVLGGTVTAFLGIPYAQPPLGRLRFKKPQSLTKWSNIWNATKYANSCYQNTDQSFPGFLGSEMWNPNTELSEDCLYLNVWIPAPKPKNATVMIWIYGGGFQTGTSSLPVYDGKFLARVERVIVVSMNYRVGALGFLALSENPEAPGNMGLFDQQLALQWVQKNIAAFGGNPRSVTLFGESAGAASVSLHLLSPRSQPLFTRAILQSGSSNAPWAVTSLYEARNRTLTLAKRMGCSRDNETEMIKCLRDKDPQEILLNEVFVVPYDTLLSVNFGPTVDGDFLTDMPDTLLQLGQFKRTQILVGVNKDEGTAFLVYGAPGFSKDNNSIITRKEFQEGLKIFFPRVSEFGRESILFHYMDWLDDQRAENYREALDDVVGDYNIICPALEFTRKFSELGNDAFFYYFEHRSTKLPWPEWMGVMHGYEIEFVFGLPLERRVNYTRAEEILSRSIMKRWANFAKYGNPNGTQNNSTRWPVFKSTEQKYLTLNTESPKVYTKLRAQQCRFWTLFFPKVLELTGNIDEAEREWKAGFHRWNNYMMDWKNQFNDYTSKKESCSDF
Chain of Cholinesterase (Equus caballus) (P81908 whole entry): as above

Row | SMILES | IC50 (Cholinesterase) | IC50 (Acetylcholinesterase) | inhibition [1] | inhibition [2] | inhibition [3]
1 | COc1ccc(NCc2ccc(C)cc2)cc1 | > 100 µM | 1.33 µM | Active | – | –
2 | Cc1ccc(CN(C(=O)/C=C/C(=O)N(Cc2ccc(C)cc2)c2ccc(Br)cc2)c2ccc(Br)cc2)cc1 | 23.1 µM | 0.14 µM | Active | Active | Active
3 | Cc1ccc(CNc2ccc(I)cc2)cc1 | > 100 µM | > 100 µM | Active | – | –
4 | Cc1ccc(CN(C(=O)/C=C/C(=O)N(Cc2ccc(C)cc2)c2ccc(F)cc2)c2ccc(F)cc2)cc1 | 56.6 µM | 23.9 µM | Active | – | –
5 | c1ccc(CNc2ccccc2)cc1 [N-BENZYLANILINE] | > 100 µM | 13 µM | Active | – | –
6 | O=C(/C=C/C(=O)N(Cc1ccccc1)c1ccccc1)N(Cc1ccccc1)c1ccccc1 | 52.4 µM | 11.8 µM | Active | – | –
7 | Cc1ccc(CN(C(=O)/C=C/C(=O)N(Cc2ccc(C)cc2)c2ccc(C)cc2)c2ccc(C)cc2)cc1 | 54.8 µM | 43.1 µM | Active | – | –
8 | COc1ccc(N(Cc2ccc(C)cc2)C(=O)/C=C/C(=O)N(Cc2ccc(C)cc2)c2ccc(OC)cc2)cc1 | 41 µM | 11.2 µM | Active | – | –
9 | CCOc1ccc(N(Cc2ccccc2)C(=O)/C=C/C(=O)N(Cc2ccccc2)c2ccc(OCC)cc2)cc1 | 44 µM | 35.9 µM | Active | – | –
10 | CCOc1ccc(NCc2ccc(C)cc2)cc1 | 4.07 µM | > 100 µM | Active | – | –
11 | Cc1ccc(CN(C(=O)/C=C/C(=O)N(Cc2ccc(C)cc2)c2ccc(I)cc2)c2ccc(I)cc2)cc1 | 24.6 µM | 17.7 µM | Active | – | –
12 | CCOc1ccc(NCc2ccccc2)cc1 | > 100 µM | > 100 µM | Active | – | –
13 | Cc1ccc(CNc2ccc(F)cc2)cc1 | > 100 µM | > 100 µM | Active | – | –
14 | CCc1ccc(N(Cc2ccccc2)C(=O)/C=C/C(=O)N(Cc2ccccc2)c2ccc(CC)cc2)cc1 | 49.3 µM | 32.2 µM | Active | – | –
15 | Cc1ccc(CN(C(=O)/C=C/C(=O)N(Cc2ccc(C)cc2)c2ccc(Cl)cc2)c2ccc(Cl)cc2)cc1 | 45.6 µM | 2.42 µM | Active | – | –
16 | O=C(/C=C/C(=O)N(Cc1ccccc1)c1ccc(Cl)cc1)N(Cc1ccccc1)c1ccc(Cl)cc1 | 57.7 µM | 2.53 µM | Active | – | –
17 | O=C(/C=C/C(=O)N(Cc1ccccc1)c1ccc(F)cc1)N(Cc1ccccc1)c1ccc(F)cc1 | 89.5 µM | 4.5 µM | Active | – | –

Row | SMILES | IC50 (Cholinesterase) | IC50 (Acetylcholinesterase) | inhibition [1] | inhibition [2] | inhibition [3]
18 | Cc1ccc(N(Cc2ccccc2)C(=O)/C=C/C(=O)N(Cc2ccccc2)c2ccc(C)cc2)cc1 | 26.3 µM | 12.5 µM | Active | – | –
19 | CCc1ccc(N(Cc2ccc(C)cc2)C(=O)/C=C/C(=O)N(Cc2ccc(C)cc2)c2ccc(CC)cc2)cc1 | 44.7 µM | 29.4 µM | Active | – | –
20 | Ic1ccc(NCc2ccccc2)cc1 | > 100 µM | > 100 µM | Active | – | –
21 | Fc1ccc(NCc2ccccc2)cc1 | > 100 µM | > 100 µM | Active | – | –
22 | CCc1ccc(NCc2ccccc2)cc1 | > 100 µM | > 100 µM | Active | – | –
23 | CCOc1ccc(N(Cc2ccc(C)cc2)C(=O)/C=C/C(=O)N(Cc2ccc(C)cc2)c2ccc(OCC)cc2)cc1 | > 100 µM | 2.23 µM | Active | – | –
24 | COc1ccc(N(Cc2ccccc2)C(=O)/C=C/C(=O)N(Cc2ccccc2)c2ccc(OC)cc2)cc1 | 43.6 µM | 13.9 µM | Active | – | –
25 | Brc1ccc(NCc2ccccc2)cc1 | > 100 µM | > 100 µM | Active | – | –
26 | O=C(/C=C/C(=O)N(Cc1ccccc1)c1ccc(Br)cc1)N(Cc1ccccc1)c1ccc(Br)cc1 | 16.5 µM | 8.06 µM | Active | Active | Active
27 | CCc1ccc(NCc2ccc(C)cc2)cc1 | > 100 µM | > 100 µM | Active | – | –
28 | Clc1ccc(NCc2ccccc2)cc1 | > 100 µM | > 100 µM | Active | – | –
29 | Cc1ccc(CNc2ccc(Br)cc2)cc1 | > 100 µM | > 100 µM | Active | – | –
30 | Cc1ccc(NCc2ccccc2)cc1 [N-BENZYL-4-METHYLANILINE] | > 100 µM | > 100 µM | Active | – | –
31 | Cc1ccc(CNc2ccc(Cl)cc2)cc1 | > 100 µM | > 100 µM | Active | – | –
32 | Cc1ccc(CNc2ccc(C)cc2)cc1 | > 100 µM | > 100 µM | Active | – | –
33 | O=C(/C=C/C(=O)N(Cc1ccccc1)c1ccc(I)cc1)N(Cc1ccccc1)c1ccc(I)cc1 | 23.3 µM | 0.97 µM | Active | – | –
